ChEMBL document CHEMBL1137080, “Synthesis and antiviral activity of (Z)- and (E)-2,2-[bis(hydroxymethyl)cyclopropylidene]methylpurines and -pyrimidines: second-generation methylenecyclopropane analogues of nucleosides” (J Med Chem, 2004)

What was measured:
Human betaherpesvirus 5 [1] = experiment: In vitro effective concentration required to inhibit towne strain of human cytomegalovirus (HCMV) replication in HFF cell line; type: functional, organism-based; conditions: Human betaherpesvirus 5, HFF
Human betaherpesvirus 5 [2] = experiment: In vitro effective concentration required to inhibit AD169 strain of human cytomegalovirus (HCMV) replication in HFF cell line; type: functional, organism-based; conditions: Human betaherpesvirus 5, HFF
Murid betaherpesvirus 1 = experiment: In vitro cytotoxic concentration required to inhibit murine cytomegalovirus (MCMV) replication in MEF cell line; type: functional
MEF = experiment: In vitro effective concentration required to inhibit murine cytomegalovirus (MCMV) replication in MEF cell line; type: functional, cell-based; conditions: Mus musculus
HFF [3] = experiment: In vitro cytotoxic concentration required to inhibit AD169 strain of human cytomegalovirus (HCMV) replication in HFF cell line; type: functional
Human betaherpesvirus 5 [4] = experiment: In vitro cytotoxic concentration required to inhibit towne strain of human cytomegalovirus (HCMV) replication in HFF cell line; type: functional; conditions: Human betaherpesvirus 5, HFF
Human gammaherpesvirus 4 [5] = experiment: In vitro effective concentration required to inhibit Epstein-Barr virus (EBV) replication in Daudi cells; type: functional, organism-based; conditions: human gammaherpesvirus 4, Daudi
Human gammaherpesvirus 4 [6] = experiment: In vitro effective concentration required to inhibit Epstein-Barr virus (EBV) replication in H-1 cell line; type: functional, organism-based; conditions: human gammaherpesvirus 4, H-1
Hepatitis B virus = experiment: In vitro effective concentration required to inhibit hepatitisB virus (HBV) replication in 2.2.15 cell line; type: functional, organism-based
Human alphaherpesvirus 3 = experiment: In vitro effective concentration required to inhibit varicella zoster virus (VZV) replication in HFF cell line; type: functional, organism-based; conditions: Human alphaherpesvirus 3, HFF
Human gammaherpesvirus 4 [7] = experiment: In vitro cytotoxic concentration required to inhibit Epstein-Barr virus (EBV) replication in Daudi cells; type: functional; conditions: human gammaherpesvirus 4, Daudi
HepG2 = experiment: In vitro cytotoxic concentration required to inhibit hepatitisB virus (HBV) replication in 2.2.15 cell line; type: functional; conditions: Homo sapiens
HFF [8] = experiment: In vitro effective concentration required to inhibit varicella zoster virus (VZV) replication in HFF cell line by plaque reduction assay; type: functional, cell-based; conditions: Homo sapiens

| Structure (SMILES) | EC50 (Human betaherpesvirus 5 [1]) [µM] | EC50 (Human betaherpesvirus 5 [2]) [µM] | CC50 (Murid betaherpesvirus 1; Murid betaherpesvirus 1, MEF) [µM] | EC50 (MEF) [µM] | CC50 (HFF [3]) [µM] | CC50 (Human betaherpesvirus 5 [4]) [µM] | EC50 (Human gammaherpesvirus 4 [5]) [µM] | EC50 (Human gammaherpesvirus 4 [6]) [µM] | EC50 (Hepatitis B virus) [µM] | EC50 (Human alphaherpesvirus 3) [µM] | CC50 (Human gammaherpesvirus 4 [7]) [µM] | CC50 (HepG2) [µM] | CC50 (Murid betaherpesvirus 1) | EC50 (HFF [8]) [µM] |
| --- | --- | --- | --- | --- | --- | --- | --- | --- | --- | --- | --- | --- | --- | --- |
| Nc1nc2c(ncn2COC(CO)CO)c(=O)[nH]1 [GANCICLOVIR] | 4.1 | 2.3 | > 35 | 5 | > 392 | > 100 |  |  |  |  |  |  |  |  |
| Cc1cn(/C=C2/CC2(CO)CO)c(=O)[nH]c1=O | > 100 | > 420 |  |  | > 420 | > 100 | 4.6 | 19 | > 10 | > 420 | > 210 | > 50 |  |  |
| Nc1ccn(/C=C2/CC2(CO)CO)c(=O)n1 | 32 | 14.3 | > 448 | 54 | > 448 | > 100 | > 45 | > 20 | > 10 | > 448 | 70 | > 50 |  |  |
| Nc1nc(Cl)c2ncn(C=C3CC3(CO)CO)c2n1 [listing 1 of 2 here] | > 100 | > 355 |  |  | > 301 | > 100 | 142 | 16.4 | > 20 | > 71 | > 178 | 11.6 |  |  |
| Nc1nc(N)c2ncn(C=C3CC3(CO)CO)c2n1 [listing 1 of 3 here] |  |  |  |  |  |  |  |  |  |  |  |  | Not toxic |  |
| Nc1nc(N)c2ncn(C=C3CC3(CO)CO)c2n1 [listing 2 of 3 here] | > 100 | 313 |  |  | > 381 | > 100 | < 0.31 | > 20 | > 20 | 270 | 191 | > 100 |  |  |
| Nc1nc(NC2CC2)c2ncn(/C=C3\CC3(CO)CO)c2n1 | > 100 | 327 |  |  | > 331 | > 100 | 0.3 | > 20 | > 20 | > 331 | > 165 | > 100 |  |  |
| Nc1nc(N)c2ncn(C=C3CC3(CO)CO)c2n1 [listing 3 of 3 here] | 15 | > 381 |  |  | > 381 | > 100 | > 191 | > 20 | 4 | 8.4 | > 191 | 48 |  | 38.9 |
| Cc1cn(/C=C2\CC2(CO)CO)c(=O)[nH]c1=O | > 100 | > 420 |  |  | > 420 | > 100 | 178 | > 20 | > 10 | > 420 | > 210 | > 50 |  |  |
| Nc1ccn(/C=C2\CC2(CO)CO)c(=O)n1 | > 100 | > 448 |  |  | > 448 | > 100 | 152 | > 20 | > 10 | > 448 | > 224 | > 50 |  |  |
| Nc1ncnc2c1ncn2/C=C1/CC1(CO)CO | 3.6 | 11.7 | > 404 | 9.7 | > 404 | 100 | 166 | 16 | > 10 | > 404 | > 202 | > 50 |  |  |
| COc1nc(N)nc2c1ncn2C=C1CC1(CO)CO [listing 1 of 3 here] | 3.5 | 2.7 | > 361 | 2 | > 361 | > 100 | 161 | 4.8 | > 20 | 11.2 | > 180 | 90 |  | 3.3 |
| Nc1nc(NC2CC2)c2ncn(/C=C3/CC3(CO)CO)c2n1 | > 100 | 255 |  |  | > 331 | > 100 | > 165 | > 20 | > 20 | > 66 | > 165 | > 100 |  |  |
| Nc1ncnc2c1ncn2/C=C1\CC1(CO)CO | > 100 | > 404 |  |  | > 404 | > 100 | 132 | > 20 | > 10 | 11.7 | > 202 | > 50 |  | 44.9 |
| Nc1nc2c(ncn2/C=C2\CC2(CO)CO)c(=O)[nH]1 | 39 | 120 | > 380 | 42 | > 380 | > 100 | 119 | > 20 | > 20 | > 357 | > 190 | > 50 |  |  |
| COc1nc(N)nc2c1ncn2C=C1CC1(CO)CO [listing 2 of 3 here] | > 100 | > 361 |  |  | > 361 | > 100 | > 180 | > 20 | > 20 | 322 | > 180 | > 100 |  |  |
| Nc1nc(Cl)c2ncn(C=C3CC3(CO)CO)c2n1 [listing 2 of 2 here] | > 100 | > 355 |  |  | > 355 | > 100 | > 178 | 16.4 | > 20 | > 71 | > 178 | 23.6 |  |  |
| COc1nc(N)nc2c1ncn2C=C1CC1(CO)CO [listing 3 of 3 here] |  |  |  |  |  |  |  |  |  |  |  |  | Not toxic |  |
| Nc1nc2c(ncn2/C=C2/CC2(CO)CO)c(=O)[nH]1 [FILOCICLOVIR] | 0.46 | 0.49 | > 380 | 0.27 | > 380 | > 100 | 45 | 7 | > 10 | > 380 | 74 | > 50 |  |  |
| Nc1nc(F)c2ncn(C=C3CC3(CO)CO)c2n1 [listing 1 of 2 here] | 33 | 43.7 | 176 | 18.9 | > 337 | > 100 | > 189 | 18.5 | 0.02 | 31.7 | > 189 | > 100 |  | 180 |
| Nc1nc(F)c2ncn(C=C3CC3(CO)CO)c2n1 [listing 2 of 2 here] | 38 | 22.2 | 176 | 18.9 | > 377 | > 100 | > 189 | 20.8 | > 20 | 41.8 | > 189 | 56.4 |  | 50.1 |
